The nature of data set [1]: Cytotoxicity in human HepG2(2.2.15) cells after 72 hrs by MTT assay. Type of data set: cell-based. (In general: Tetrazolium assays rely on reduction of a dye to a coloured formazan, in cell work by metabolically active cells.)
Data set [2] is described as follows: Selectivity index, ratio of CC50 for human HepG2(2.2.15) cells to IC50 for HBeAg antigen secretion in HBV infected in human HepG2(2.2.15) cells. Format: functional.
The test system of data set [3] is Hepatitis B virus. Put plainly: Antiviral activity against HBV infected in human HepG2(2.2.15) cells assessed as reduction in HBsAg antigen secretion after 72 hrs by ELISA. Format: functional, organism-based. Particulars: HepG2 2.2.15, 72 h. Background: ELISA stands for enzyme-linked immunosorbent assay.
Data set [4] has as its system Hepatitis B virus. As to the kind of experiment: Antiviral activity against HBV infected in human HepG2(2.2.15) cells assessed as reduction in HBeAg antigen secretion after 72 hrs by ELISA. Format: functional, organism-based. As to conditions: HepG2 2.2.15, 72 h.
The nature of data set [5]: Selectivity index, ratio of CC50 for human HepG2(2.2.15) cells to IC50 for HBsAg antigen secretion in HBV infected in human HepG2(2.2.15) cells. Format: functional.

In general, CC50 refers to the concentration that lowers cell viability or growth by half. Higher therefore signals better tolerance by the cells. What is called IC50 is the point on the concentration scale where inhibition reaches its midpoint.

Each structure is given as a SMILES string.

`Nc1ccn([C@@H]2CS[C@H](CO)O2)c(=O)n1` [LAMIVUDINE]: half-maximal cytotoxicity in data set [1] (CC50 at 72 h) was put at 33200 µM. Also, in data set [2], the “Ratio CC50/IC50” value stood at 1.1.
As to `CC(=O)C[C@@H]1O[C@@H](C)C(=O)C2=C1C(=O)OCC2` [Swerilactone L], the IC50 in the data set on Hepatitis B virus [3] amounted to 1470 µM; in the data set with Hepatitis B virus [4], 880 µM. Besides, the CC50 at 72 h in data set [1] was determined as 1430 µM. Further, the “Ratio CC50/IC50” value is on record as less than 1 in data set [5] and 1.62 in data set [2].
The matching figures for `CC(=O)c1cc2c(c([C@H](C)O)c1)CCOC2=O` [Swerilactone M]: 1200 µM, more than 2690 µM, 1840 µM, 1.53 and less than 1.
As for `CC(=O)C[C@H](O)c1cccc2c1CCOC2=O` [Swerilactone N], the 50% inhibitory concentration (IC50) with Hepatitis B virus [3] and in the data set with Hepatitis B virus [4] was more than 510 µM throughout. In data set [1], this molecule showed a 50% cytotoxic concentration (CC50) at 72 h of more than 510 µM.
As to `CC(=O)/C=C/c1cccc2c1CCOC2=O` [Swerilactone O], the 50% inhibitory concentration (IC50) in the data set with Hepatitis B virus [3] and in the data set with Hepatitis B virus [4] was more than 1440 µM each time. Moreover, the 50% cytotoxic concentration (CC50) at 72 h in data set [1] is more than 1440 µM.

The values are drawn from ChEMBL document CHEMBL1817662, “Swerilactones L-O, secoiridoids with C₁₂ and C₁₃ skeletons from Swertia mileensis” (J Nat Prod, 2011).
